Results taken from patent US10179770B2, “Quinolines derivatives as novel anticancer agents” (GENOSCIENCE PHARMA, priority 2013, dated 2019).

Legend:
U937 = test: CellTiter-Glo cell viability assay (example 57); format: cell-based; conditions: Homo sapiens, U-937; U937 (Leukemia); Cell Titer-Glo; 72 h
Description: (§1) The human breast cancer cell line SkBr3 and the human metastatic prostate carcinoma cell line LnCAP were cultured in Dulbecco's modified Eagle's medium (DMEM) supplemented with 10% fetal bovine serum (FBS) and 0.1% sodium pyruvate. The human myelocytic cell line U937 and NB4 were maintained in RPMI medium 1640 1× (Gibco 21875-034) supplemented with 10 % Fetal Bovine Serum (FBS, Eurobio S39130-0808) Kasumi and SKM-1 were maintained in RPMI medium 1640 1× (Gibco 21875-034) supplemented with 20 % Fetal Bovine Serum (FBS, Eurobio S39130-0808), HL60 was maintained in Iscove's modified Dulbecco's medium 1× (IMDM, Gibco 21890) supplemented with 20% Fetal Bovine Serum (FBS, Eurobio S39130-0808), cell line was maintained in MEM alpha medium (Gibco 22561-021) supplemented with 10% FBS at 37° C. with 5% CO2. Cell outgrowth was measured using the CellTiter-Glo luminescent cell viability assay as described by the manufacturer (Promega, Ref G7571 Madison, Wis., USA) using a FLUOstar optima luminometer (BMG Labtech, Ortenberg, Germany).
(§2) Briefly, for adherent cells, 10^4 cells were plated onto 96-well plates (white with clear bottom (3610, Corning Costar) in 100 μL of media per well and were allowed to grow overnight before the assay. For cells growing in suspension, 10^4 cells were plated onto 96-well plates immediately before the assay. […] Vehicle (DMSO) was used as a control, and all compounds were tested in a constant percentage of DMSO (1%). After addition of 50 μL of CellTiter GLO, luminescence was measured using a Centro luminometer (Berthold). EC50 values were determined as the dose of compound required to reduce luminescent values to 50% of the signal obtained for untreated cell cultures. All experiments were done in duplicate and repeated two independent times.

HL60 = test: CellTiter-Glo cell viability assay (example 57); format: cell-based; conditions: Homo sapiens, HL-60; HL60 (Leukemia); Cell Titer-Glo; 72 h
Description: as §1, §2

Kasumi-1 = test: CellTiter-Glo cell viability assay (example 57); format: cell-based; conditions: Homo sapiens; Kasumi-1 (Leukemia); Cell Titer-Glo; 72 h
Description: as §1, §2

MOLM-14 = test: CellTiter-Glo cell viability assay (example 57); format: cell-based; conditions: Homo sapiens; MOLM-14 (Leukemia); Cell Titer-Glo; 72 h
Description: as §1, §2

NB4 = test: CellTiter-Glo cell viability assay (example 57); format: cell-based; conditions: Homo sapiens, NB-4; NB4 (Leukemia); Cell Titer-Glo; 72 h
Description: as §1, §2

KG-1 = test: CellTiter-Glo cell viability assay (example 57); format: cell-based; conditions: Homo sapiens; KG-1 (Leukemia); Cell Titer-Glo; 72 h
Description: as §1, §2

SKM-1 = test: CellTiter-Glo cell viability assay (example 57); format: cell-based; conditions: Homo sapiens; SKM-1 (Leukemia); Cell Titer-Glo; 72 h
Description: as §1, §2

MOLM-14 cell line = test: Growth inhibition assay of MOLM-14 (CellTiter-Glo, example 63); format: cell-based; conditions: Homo sapiens, 48 h, method of example 63
Description: MOLM-14 cell line was cultured in RPMI-1640 Medium supplemented with 10% v/v Fetal Bovine Serum (FBS), 1% Penicillin-Streptomycin and maintained at 37° C. with 5% CO2. 10,000 cells were plated onto 96-well plates immediately before the assay.
Each compound was added at different concentrations (combinations of six concentrations) to each well, and cell cultures were incubated for 48 h. Vehicle (H2O) was used as a control, and all compounds were tested in a constant percentage of vehicle. Cell outgrowth was measured using the CellTiter-Glo luminescent cell viability assay as described by the manufacturer (Promega, Ref G7571 Madison, Wis., USA) using a Centro (Berthold, France) plate reader.
In each experiment, each point represents the average of triplicates in cell culture.
The experimental data are analyzed using a computer program, Graphpad Prism (GraphPad Software, Inc. La Jolla, Calif.) and EC50 values were determined as the dose of compound required to reduce absorbance values to 50% of the signal obtained for vehicle treated cell cultures.

[1] = system: ALDH+ cancer stem cells (CSC) in MOLM-14 cell line; test: Aldefluor kit assay, ALDH+ compartment analysis; format: cell-based, human; conditions: for Aldefluor™ positive CSCs (% of control): 72 h; for Aldefluor positive CSCs (% of control): MOLM-14 cell line, 72 h incubation
Description: Analysis of the of aldehyde dehydrogenase (ALDH) compartment and high activity level of aldehyde dehydrogenase activity (ALDH+) was used to detect tumor initiating cells (cancer stem cells, CSC) population. The Aldefluor™ kit assay (StemCell Technologies) allowed to assess the activity of drugs on CSC cells like in aa MOLM-14 acute myeloid leukemia cell line population. The Aldefluor™ kit assay was used according to the procedure described by the manufacturer. Briefly, MOLM-14 cell line was cultured in RPMI-1640 Medium supplemented with 10% v/v Fetal Bovine Serum (FBS), 1% Penicillin-Streptomycin and maintained at 37° C. with 5% CO2. 5·10^5 cells were used in this assay. Each compound was added at different concentrations (see table 13 and 14), and cell cultures were incubated for 72 h. Vehicle (H2O) was used as a control, and all compounds were tested in a constant percentage of vehicle. Cells obtained from cell culture were incubated for 45 minutes at 37° C. with Aldefluor™ buffer assay containing the Bodipy™-aminoacetaldehyde (BAAA), a fluorescent ALDH aldehyde substrate. ALDH converts the fluorescent substrate BAAA to the Bodipy™-aminoacetic acid (BAA) which is retained in the cell. An active efflux inhibitor is present in the Adelfluor™ assay buffer in order to avoid the active efflux from the cell of the substrate product ALDH dependent converted BAA. The fluorescent signal is directly proportional to the ALDH activity in the cells and is measured by flow cytometry. A negative control is used to measure the background fluorescence level. For such purpose, 4-(N,N-diethylamino)-benzaldehyde (DEAB) was used as selective ALDH inhibitor. A viability cell count was performed using LIVE/DEAD® Fixable Far Red Dead Cell Stain Kit (Invitrogen). The experimental data are analyzed using a computer program, Graphpad Prism (GraphPad Software, Inc. La Jolla, Calif.) and EC50 values were determined as the dose of compound required to reduce absorbance values to 50% of the signal obtained for vehicle treated cell cultures.

BxPC-3 = test: Cell viability assay, pancreatic cancer cell lines; format: cell-based; conditions: Homo sapiens; BxPC-3 (Pancreas); 48 h
Description: (§3) MiaPaCa-2, Panc-1 cells were grown in Dulbecco's modified eagle's medium (DMEM) (Gibco) supplemented with 10% fetal bovine serum (FBS), while BxPC-3, Capan-1, Capan-2 cells were grown in Roswell Park Memorial Institute 1640 (RPMI 1640) (Gibco) supplemented with 10% FBS. Gemcitabine (Gemzar) was purchased from Lilly France S.A.S (Suresnes, France). (3-(4,5-dimethylthiazol-2-yl)-2,5diphenyltetrazolium bromide, MTT) was purchased from Sigma-Aldrich.
(§4) BxPC-3, MiaPaCa-2, Panc-1 cells were seeded into a 96-well plate at 10,000 10,000 15,000 cells per well respectively, while Capan-1 and Capan-2 cells at 20,000 cells per well and allowed to adhere overnight. Then the culture medium was removed and replaced with fresh media alone as control or containing various concentrations of different compounds. In dose-dependent assay, the cells were treated with compound XIX-3 at the concentration varying from 0.1 μM to 100 μM while the cells being cultured by fresh media alone were used as control. After 48 h treatment, the number of remained viable cells was determined by (3-(4,5-dimethylthiazol-2-yl)-2,5diphenyltetrazolium bromide, MTT) colorimetric assay (see Sigma Aldrich protocol and Riss T. L. et al. Cell Viability Assays in Assay Guidance Manual 2013 ppl.). All experiments were done in duplicate and repeated two independent times.

HepG2 = test: CellTiter-Glo cell viability assay (example 57); format: cell-based; conditions: Homo sapiens; HepG2 (Liver); Cell Titer-Glo; 72 h
Description: as §1, §2

SkBr3 = test: CellTiter-Glo cell viability assay (example 57); format: cell-based; conditions: Homo sapiens, SK-BR-3; SkBr3 (Breast); Cell Titer-Glo; 72 h
Description: as §1, §2

LNCaP = test: CellTiter-Glo cell viability assay (example 57); format: cell-based; conditions: Homo sapiens; LNCaP (Prostate); Cell Titer-Glo; 72 h
Description: as §1, §2

HT29 = test: CellTiter-Glo cell viability assay (example 57); format: cell-based; conditions: Homo sapiens, HT-29; HT29 (Colon); Cell Titer-Glo; 72 h
Capan-2 = test: Cell viability assay, pancreatic cancer cell lines; format: cell-based; conditions: Homo sapiens; Capan-2 (Pancreas); 48 h
Description: as §3, §4

Panc-1 = test: Cell viability assay, pancreatic cancer cell lines; format: cell-based; conditions: Homo sapiens; Panc-1 (Pancreas); 48 h
Description: as §3, §4

Capan-1 = test: Cell viability assay, pancreatic cancer cell lines; format: cell-based; conditions: Homo sapiens; Capan-1 (Pancreas); 48 h
Description: as §3, §4

MIA PaCa-2 = test: Cell viability assay, pancreatic cancer cell lines; format: cell-based; conditions: Homo sapiens; MIA PaCa-2 (Pancreas); 48 h
Description: as §3, §4

U87-MG = test: CellTiter 96 Aqueous One Solution (MTS) cell proliferation assay; format: cell-based; conditions: Homo sapiens, U-87 MG; U87-MG (Glioma); Cell Titer 96 Aqueous One Solution; 72 h; mean of seven independent triplicate assays
Description: The human glioblastoma cell line U87-MG was cultured in Minimum Essential Medium (Life Invitrogen, 31095029) supplemented with 10% fetal bovine serum (GIBCO, 10500-056) and 1 % penicillin-streptomycin (GIBCO, 15140-122). Flasks and plated used for the cell culture were coated with 25 μg/mL poly-D-lysine (Sigma, P7280).
Cell outgrowth was measured using a tetrazolium compound (3-[4,5-dimethylthiazol-2-yl]-5-[3-carboxymethoxyphenyl]-2-[4-sulfophenyl]-2H tetrazolium, inner salt [MTS]) from the CellTiter 96® Aqueous One Solution Cell Proliferation Assay (Promega, Ref G3580) and according to the manufacturer procedure.
5000 cells were plated onto 96-well plates in 100 μL of media per well and were allowed to grow overnight before the assay. Compounds were added at different concentrations to each well, and cell cultures were incubated for 72 h. Control compound was the diluent used for compound resuspension (H2O). After addition of 20 μL of CellTiter 96® Aqueous One Solution, absorbance at 492 nm was measured using a microplate reader Sunrise (Tecan). EC50 values were determined as the dose of compound required to reduce […] values to 50% of the signal obtained for untreated cell cultures. […] The experimental data are analyzed using a computer program, Graphpad Prism (GraphPad Software, Inc. La Jolla, Calif.).

B16F10 = test: CellTiter-Glo cell viability assay (example 57); format: cell-based, human; conditions: Mus musculus, B16-F10; B16F10 (Melanoma); Cell Titer-Glo; 72 h

Compound	EC50 (U937) [µM]	EC50 (HL60) [µM]	EC50 (Kasumi-1) [µM]	EC50 (MOLM-14) [µM]	EC50 (NB4) [µM]	EC50 (KG-1) [µM]	EC50 (SKM-1) [µM]	EC50 (BxPC-3) [µM]	EC50 (HepG2) [µM]	EC50 (SkBr3) [µM]	EC50 (LNCaP) [µM]	EC50 (HT29) [µM]	other results
Nc1ccn([C@@H]2O[C@H](CO)[C@@H](O)[C@@H]2O)c(=O)n1 [Cytarabine]	0.03	2	0.15	3	0.02	0.15	2						EC50 (MOLM-14 cell line): 1 µM; Aldefluor™ positive CSCs (% of control) ([1]; MOLM-14, 1 μM): 130 % of control; Aldefluor™ positive CSCs (% of control) ([1]; MOLM-14, 3 μM): 116 % of control; Activity against CSCs in Aldefluor™ assay (proportion of CSCs) ([1]; MOLM-14, dose dependent, Cytarabine up to 3-fold its EC50): not active against CSCs; Aldefluor positive CSCs (% of control) ([1]; 1 μM): 130 % of control; Aldefluor positive CSCs (% of control) ([1]; 3 μM): 116 % of control
Nc1ccn([C@@H]2O[C@H](CO)[C@@H](O)C2(F)F)c(=O)n1 [Gemcitabine, gemcitabine]								0.02	0.02	0.2	0.04	0.2	
CCN(CCO)CCCC(C)Nc1ccnc2cc(Cl)ccc12 (stereo not drawn) [HCQ, hydroxychloroquine]	60	40	20	50	57	60	70	53	20	20	25	20	EC50 (Capan-2): 47 µM; EC50 (Panc-1): 57 µM; EC50 (Capan-1): 41 µM; EC50 (MIA PaCa-2): 47 µM; EC50 (U87-MG): 55 µM; EC50 (B16F10): 20 µM
